This note sets out measurements from patent US9926297B2, “Bicyclic AZA compounds as muscarinic M1 receptor and/or M4 receptor agonists” (Heptares Therapeutics Limited, priority 2014, dated 2018).

Assay [1] has as its target T1, human muscarinic M1 receptor (Homo sapiens, UniProt P11229).
T1 sequence (P11229 1-460): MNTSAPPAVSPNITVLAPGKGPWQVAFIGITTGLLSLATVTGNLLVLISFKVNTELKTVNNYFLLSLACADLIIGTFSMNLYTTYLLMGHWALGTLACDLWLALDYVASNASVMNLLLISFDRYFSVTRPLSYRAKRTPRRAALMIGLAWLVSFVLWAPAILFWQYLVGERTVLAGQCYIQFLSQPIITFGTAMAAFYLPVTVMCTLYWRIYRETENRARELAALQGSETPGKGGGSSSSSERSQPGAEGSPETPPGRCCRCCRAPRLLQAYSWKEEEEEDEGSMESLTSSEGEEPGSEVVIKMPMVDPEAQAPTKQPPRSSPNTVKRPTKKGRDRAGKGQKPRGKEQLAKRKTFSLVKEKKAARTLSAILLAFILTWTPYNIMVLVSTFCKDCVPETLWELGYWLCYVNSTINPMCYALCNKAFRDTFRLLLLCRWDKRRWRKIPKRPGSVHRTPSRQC
Description: Alphascreen Surefire phospho-ERK1/2 functional assay, M1. Format: cell-based. As to conditions: for EC50 / pEC50 M1 / % Emax cf. ACh, M1: CHO cells stably expressing human M1; for EC50 / pEC50 M1: phospho-ERK1/2, * = variable results; for EC50: read-out: pEC50 M1 (converted); for Emax: CHO. (Bead proximity is the source of the signal in Alpha formats.)

Assay [2] concerns the target T2, human muscarinic M4 receptor (Homo sapiens, UniProt P08173).
T2 construct: expressed in transfected cells
T2 sequence (P08173 1-479): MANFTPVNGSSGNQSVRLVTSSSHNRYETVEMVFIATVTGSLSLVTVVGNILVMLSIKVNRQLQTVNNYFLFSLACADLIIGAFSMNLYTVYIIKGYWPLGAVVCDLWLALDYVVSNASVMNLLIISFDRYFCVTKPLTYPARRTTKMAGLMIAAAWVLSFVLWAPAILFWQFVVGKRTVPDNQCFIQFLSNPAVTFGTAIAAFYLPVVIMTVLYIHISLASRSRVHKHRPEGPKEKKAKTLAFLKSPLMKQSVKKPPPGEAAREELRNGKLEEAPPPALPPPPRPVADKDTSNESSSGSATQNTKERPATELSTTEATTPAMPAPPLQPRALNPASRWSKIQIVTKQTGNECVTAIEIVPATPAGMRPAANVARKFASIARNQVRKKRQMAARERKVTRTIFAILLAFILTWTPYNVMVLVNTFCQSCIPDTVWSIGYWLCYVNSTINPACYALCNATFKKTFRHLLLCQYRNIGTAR
Nature of the assay: Alphascreen Surefire phospho-ERK1/2 functional assay, M4. In kind it is cell-based. The note with it: for EC50 / pEC50 M4 / % Emax cf. ACh, M4: CHO cells stably expressing human M4; for EC50 / pEC50 M4: phospho-ERK1/2, * = variable results; for EC50: read-out: pEC50 M4 (converted); for Emax: CHO.

The subject of assay [3] is scopolamine-induced amnesia. Description: Passive avoidance task, scopolamine-induced amnesia. Format: in vivo. The method, then: Studies were carried out as described previously by Foley et al., (2004) Neuropsychopharmacology. In the passive avoidance task scopolamine administration (1 mg/kg, i.p.) at 6 hours following training rendered animals amnesic of the paradigm. A dose range of 3, 10, and 30 mg/kg (po) free base, administered 90 minutes prior to the training period via oral gavage, was examined.

In assay [4] the target is T3, human muscarinic M2 receptor (Homo sapiens, UniProt P08172).
T3 sequence (P08172 1-466): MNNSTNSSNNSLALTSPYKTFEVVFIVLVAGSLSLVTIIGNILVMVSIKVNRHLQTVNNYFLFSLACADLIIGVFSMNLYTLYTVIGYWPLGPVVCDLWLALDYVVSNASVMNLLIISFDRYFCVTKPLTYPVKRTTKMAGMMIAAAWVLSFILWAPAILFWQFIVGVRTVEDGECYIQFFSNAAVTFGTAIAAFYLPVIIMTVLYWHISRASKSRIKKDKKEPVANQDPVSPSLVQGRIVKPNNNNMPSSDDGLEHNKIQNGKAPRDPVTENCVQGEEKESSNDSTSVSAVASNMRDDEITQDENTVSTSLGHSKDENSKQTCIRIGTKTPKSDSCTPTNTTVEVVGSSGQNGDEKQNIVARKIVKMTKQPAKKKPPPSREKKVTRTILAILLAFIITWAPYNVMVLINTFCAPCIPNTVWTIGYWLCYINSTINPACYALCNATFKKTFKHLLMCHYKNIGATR
Description: Alphascreen Surefire phospho-ERK1/2 functional assay, M2. As to conditions: for Emax: CHO; for pEC50 M2 / % Emax cf. ACh, M2: CHO cells stably expressing human M2; for pEC50 M2: phospho-ERK1/2, * = variable results.
Description: CHO cells stably expressing the human muscarinic M1, M2, M3 or M4 receptor were plated (25K/well) onto 96-well tissue culture plates in MEM-alpha+10% dialysed FBS. Once adhered, cells were serum-starved overnight. Agonist stimulation was performed by the addition of 5 μL agonist to the cells for 5 min (37° C.). Media was removed and 50 μL of lysis buffer added. After 15 min, a 4 μL sample was transferred to 384-well plate and 7 μL of detection mixture added. Plates were incubated for 2 h with gentle agitation in the dark and then read on a PHERAstar plate reader.
pEC50 and Emax figures were calculated from the resulting data for each receptor subtype.

The target of assay [5] is human muscarinic M3 receptor (Homo sapiens, UniProt P20309). Nature of the assay: Alphascreen Surefire phospho-ERK1/2 functional assay, M3. The note with it: for Emax: CHO; for EC50: pEC50 M3, CHO cells stably expressing human M3; for EC50 / pEC50 M3: phospho-ERK1/2, * = variable results; for pEC50 M3 / % Emax cf. ACh, M3: CHO cells stably expressing human M3.
Chain of human muscarinic M3 receptor (P20309 whole entry): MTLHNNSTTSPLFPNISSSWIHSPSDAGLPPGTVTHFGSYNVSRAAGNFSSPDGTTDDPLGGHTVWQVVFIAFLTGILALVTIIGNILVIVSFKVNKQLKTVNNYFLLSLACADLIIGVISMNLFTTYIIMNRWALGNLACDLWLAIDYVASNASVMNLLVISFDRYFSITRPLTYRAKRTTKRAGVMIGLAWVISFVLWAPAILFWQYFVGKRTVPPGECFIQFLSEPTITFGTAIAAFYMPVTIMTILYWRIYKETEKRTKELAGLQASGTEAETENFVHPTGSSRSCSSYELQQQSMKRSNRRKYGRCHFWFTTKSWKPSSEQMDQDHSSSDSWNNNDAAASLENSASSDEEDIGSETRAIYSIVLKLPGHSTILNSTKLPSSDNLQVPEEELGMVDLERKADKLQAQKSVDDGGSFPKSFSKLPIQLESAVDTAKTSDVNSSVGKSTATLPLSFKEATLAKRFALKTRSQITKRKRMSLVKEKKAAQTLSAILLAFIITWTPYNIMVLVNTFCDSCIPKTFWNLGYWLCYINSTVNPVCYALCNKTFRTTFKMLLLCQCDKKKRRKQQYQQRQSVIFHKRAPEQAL
Setting [6] is: read-out: % Emax cf. ACh, M1, CHO cells stably expressing human M1, relative to ACh.
Where [7] appears, read: read-out: % Emax cf. ACh, M4, CHO cells stably expressing human M4, relative to ACh.
Setting [8] is: read-out: % Emax cf. ACh, M2, CHO cells stably expressing human M2, relative to ACh.
Where [9] appears, read: read-out: % Emax cf. ACh, M3, CHO cells stably expressing human M3, relative to ACh.

The structures appear in SMILES notation. Where two headings read alike, the source gives them in different places. Bounds are passed on as bounds.

As to `CCOC(=O)N1CCC2(CC(N3CCC(n4cccn4)CC3)C2)C1` (single isomer, unassigned) [1-33 Isomer 2, ethyl 2-[4-(1H-pyrazol-1-yl)piperidin-1-yl]-6-azaspira[3.4]octane-6-carboxylate], the EC50 in assay [1] was 25.1 nM; in assay [2] it was 3.98 nM; in assay [5] it was above 20000 nM. Besides, the Emax (in general, the maximal effect, on the per cent scale that the assay sets) in assay [1] (read-out: % Emax cf. ACh, M1) is 11%; in assay [2] (read-out: % Emax cf. ACh, M4), 118%; in assay [4] (read-out: % Emax cf. ACh, M2) it was 49%; in assay [5] (read-out: % Emax cf. ACh, M3), 7%. Moreover, the “reversal of scopolamine-induced amnesia” value in assay [3] (3, 10 and 30 mg/kg po) was “reverse scopolamine-induced amnesia of the paradigm in a dose-dependent manner”. Further, the ED50 – broadly, the dose at which the effect has come halfway, by size or by number of responders – in assay [3] (po, 90 minutes prior to training, scopolamine 1 mg/kg i.p. 6 hours following training, read-out: approximate ED50, reversal of scopolamine-induced amnesia) is around 10 mg/kg.

`CCOC(=O)N1CCC2(CC(N3CCC(N4CCSCC4)CC3)C2)C1` (single isomer, unassigned) [4-12 Isomer 2, ethyl 2-[4-(thiomorpholin-4-yl)piperidin-1-yl]-6-azaspiro[3.4]octane-6-carboxylate]: the EC50 in assay [1] is above 20000 nM; in assay [2], 39.8 nM; in assay [4] it was above 20000 nM; in assay [5] it was above 20000 nM. In addition, the Emax in assay [1] (setting [6]) worked out at 19%; in assay [2] (setting [7]), 32%; in assay [4] (setting [8]), 7%; in assay [5] (setting [9]), 14%.

Regarding `CCOC(=O)N1CCC2(CC(N3CCC(N4CCCC(F)(F)C4)CC3)C2)C1` (single isomer, unassigned) [4-13 Isomer 2, ethyl 2-(3,3-difluoro-1,4′-bipiperidin-1′-yl)-6-azaspiro[3.4]octane-6-carboxylate], the EC50 is 631 nM in assay [1], 100 nM in assay [2], above 20000 nM in assay [4] and above 20000 nM in assay [5]. The Emax in assay [1] (setting [6]) is 51%; in assay [2] (setting [7]) it was 59%; in assay [4] (setting [8]), 10%; in assay [5] (setting [9]), 13%.

`CCOC(=O)N1CCC2(CC(N3CCC(N4CCC(F)(F)CC4)CC3)C2)C1` (single isomer, unassigned) [4-14 Isomer 2, ethyl 2-(4,4-difluoro-1,4′-bipiperidin-1′-yl)-6-azaspiro[3.4]octane-6-carboxylate]: the EC50 is 200 nM in assay [1], 20 nM in assay [2], above 20000 nM in assay [4] and above 20000 nM in assay [5]. In addition, the Emax in assay [1] (setting [6]) stood at 28%; in assay [2] (setting [7]), 48%; in assay [4] (setting [8]) it was 55%; in assay [5] (setting [9]) it was 0%.

For the molecule `CCOC(=O)N1CCC2(CC(N3CCC(N4CCCC[C@@H]4C(=O)OC)CC3)C2)C1` (single isomer, unassigned) [4-15 Isomer 2], the EC50 in assay [1] was 251 nM; in assay [2], 63.1 nM; in assay [4], above 20000 nM; in assay [5], above 20000 nM. Further, the Emax in assay [1] (setting [6]) is 82%; in assay [2] (setting [7]) it was 113%; in assay [4] (setting [8]), 7%; in assay [5] (setting [9]), 13%.

As to `CCOC(=O)N1CCC2(CC(N3CCC(N4CCCCCC4C(=O)OC)CC3)C2)C1` (single isomer, unassigned) [5-2 Isomer 2, ethyl 2-{4-[2-(methoxycarbonyl)azepan-1-yl]piperidin-1-yl}-6-azaspiro[3.4]octane-6-carboxylate], the EC50 was 1000 nM in assay [1], 50.1 nM in assay [2], above 20000 nM in assay [4] and above 20000 nM in assay [5]. Besides, the Emax stood at 58% in assay [1] (setting [6]), 96% in assay [2] (setting [7]), 5% in assay [4] (setting [8]) and 4% in assay [5] (setting [9]).

`CCOC(=O)N1CCC2(CC(N3CCC(C#N)(c4ccccn4)CC3)C2)C1` (single isomer, unassigned; isomer 1) [3-10 Isomer 1]: the “pEC50 M1” value in assay [1] is reported as 5.9. In assay [1] (relative to ACh), the “% Emax cf. ACh, M1” value was determined as 42%. In addition, the “pEC50 M4” value in assay [2] stood at 7.1. Further, the “% Emax cf. ACh, M4” value in assay [2] (relative to ACh) is on record as 71%. Besides, the “pEC50 M2” value in assay [4] was below 4.7. In addition, the “% Emax cf. ACh, M2” value in assay [4] (relative to ACh) came to 3%. Moreover, the “pEC50 M3” value in assay [5] was below 4.7. Besides, the “% Emax cf. ACh, M3” value in assay [5] (relative to ACh) is reported as 5%.

As for `CCOC(=O)N1CCC2(CC(N3CCC(C#N)(c4ccccn4)CC3)C2)C1` (single isomer, unassigned; isomer 2) [3-10 Isomer 2], in assay [1], the “pEC50 M1” value came to 8.0. In assay [1] (relative to ACh), the “% Emax cf. ACh, M1” value is recorded as 90%. Besides, in assay [2], the “pEC50 M4” value turned out to be 8.9. The “% Emax cf. ACh, M4” value in assay [2] (relative to ACh) was determined as 103%. The “pEC50 M2” value in assay [4] is 7.0. Besides, the “% Emax cf. ACh, M2” value in assay [4] (relative to ACh) was found to be 96%. The “pEC50 M3” value in assay [5] is below 4.7. The “% Emax cf. ACh, M3” value in assay [5] (relative to ACh) is 0%.
